# Publication PMC11390765 (Cancer Chemotherapy and Pharmacology, 2024)
# Key:
# [1] = Safety and tolerability (adverse events, CTCAE v5.0; full analysis set); format: in vivo, human
# Experimental: Safety and tolerability were evaluated in terms of AEs, which were classified and graded according to the National Cancer Institute (NCI) Common Terminology Criteria for Adverse Events (CTCAE) v5.0; vital signs; 12-lead electrocardiogram (ECG); and clinical laboratory assessments, including clinical chemistry and hematology parameters, urinalysis, HbA1c levels, and lipid profiles.
# Efficacy analyses were also performed on the full analysis set. Summary and/or descriptive statistics were used to analyze baseline demographic, safety, and efficacy data; PFS and DoR were estimated using Kaplan–Meier methodology.
# [2] = system: all three isoforms of AKT; design: method as in PMID 22294718; settings: cited from earlier work
# [3] = part B period 4, capivasertib only 400 mg BID, N=19
# [4] = period 2, days 2–7 cycle 1, capivasertib only 400 mg BID, N=21
# [5] = total, all treatment periods, N=21
compound,measurement,setting,value
NC1(C(=O)N[C@@H](CCO)c2ccc(Cl)cc2)CCN(c2nc[nH]c3nccc2-3)CC1 [capivasertib],QT prolongation,"[1]; ECG, whole study",no reports of QT prolongation
same,patients requiring a capivasertib dose interruption due to AEs,[1]; N = 21,66.7%
same,patients requiring a capivasertib dose reduction due to AEs,[1]; N = 21,23.8%
same,patients with AEs leading to permanent discontinuation of capivasertib,[1]; N = 21,Three
same,safety profile,[1]; administered with or without midazolam,manageable safety profile
same,"Anemia, frequency of patients overall","[1]; all treatment periods, N = 21",28.6%
same,"Diarrhea, frequency of patients overall","[1]; all treatment periods, N = 21",76.2%
same,"Fatigue, frequency of patients overall","[1]; all treatment periods, N = 21",33.3%
same,"Hyperglycemia, frequency of patients overall","[1]; all treatment periods, N = 21",28.6%
same,"Nausea, frequency of patients overall","[1]; all treatment periods, N = 21",33.3%
same,patients who experienced grade 3 AEs,"[1]; in total, N = 21",57.1%
same,patients who experienced grade ≥ 3 AEs,"[1]; in total, N = 21",66.7%
same,serious AEs (SAEs) reported in the study,"[1]; n = 1 period 2, n = 1 period 3, n = 3 part B, only one considered related to study treatment",five
same,deaths during the study,"[1]; one in part A, three in part B, none deemed possibly related to study treatment",four
same,"Abdominal pain, any grade",[1]; [3],1 (5.3) n (%)
same,"Abdominal pain, grade ≥ 3",[1]; [3],1 (5.3) n (%)
same,"Anemia, any grade",[1]; [3],4 (21.1) n (%)
same,"Anemia, grade ≥ 3",[1]; [3],0 n (%)
same,"Any AE, any grade",[1]; [3],17 (89.5) n (%)
same,"Any AE, grade ≥ 3",[1]; [3],9 (47.4) n (%)
same,"Asthenia, any grade",[1]; [3],2 (10.5) n (%)
same,"Asthenia, grade ≥ 3",[1]; [3],1 (5.3) n (%)
same,"Blood alkaline phosphatase increased, any grade",[1]; [3],0 n (%)
same,"Blood alkaline phosphatase increased, grade ≥ 3",[1]; [3],0 n (%)
same,"Blood bilirubin increased, any grade",[1]; [3],2 (10.5) n (%)
same,"Blood bilirubin increased, grade ≥ 3",[1]; [3],1 (5.3) n (%)
same,"Blood creatinine increased, any grade",[1]; [3],3 (15.8) n (%)
same,"Blood creatinine increased, grade ≥ 3",[1]; [3],0 n (%)
same,"COVID-19, any grade",[1]; [3],1 (5.3) n (%)
same,"COVID-19, grade ≥ 3",[1]; [3],1 (5.3) n (%)
same,"Decreased appetite, any grade",[1]; [3],4 (21.1) n (%)
same,"Decreased appetite, grade ≥ 3",[1]; [3],2 (10.5) n (%)
same,"Diarrhea, any grade",[1]; [3],7 (36.8) n (%)
same,"Diarrhea, grade ≥ 3",[1]; [3],1 (5.3) n (%)
same,"Fatigue, any grade",[1]; [3],4 (21.1) n (%)
same,"Fatigue, grade ≥ 3",[1]; [3],2 (10.5) n (%)
same,"Gamma-glutamyl transferase increased, any grade",[1]; [3],1 (5.3) n (%)
same,"Gamma-glutamyl transferase increased, grade ≥ 3",[1]; [3],1 (5.3) n (%)
same,"Hyperglycemia, any grade",[1]; [3],3 (15.8) n (%)
same,"Hyperglycemia, grade ≥ 3",[1]; [3],0 n (%)
same,"Hypoalbuminemia, any grade",[1]; [3],0 n (%)
same,"Hypoalbuminemia, grade ≥ 3",[1]; [3],0 n (%)
same,"Hypokalemia, any grade",[1]; [3],3 (15.8) n (%)
same,"Hypokalemia, grade ≥ 3",[1]; [3],1 (5.3) n (%)
same,"Hyponatremia, any grade",[1]; [3],3 (15.8) n (%)
same,"Hyponatremia, grade ≥ 3",[1]; [3],1 (5.3) n (%)
same,"Hypotension, any grade",[1]; [3],3 (15.8) n (%)
same,"Hypotension, grade ≥ 3",[1]; [3],1 (5.3) n (%)
same,"Large intestinal obstruction, any grade",[1]; [3],1 (5.3) n (%)
same,"Large intestinal obstruction, grade ≥ 3",[1]; [3],1 (5.3) n (%)
same,"Lymphocyte count decreased, any grade",[1]; [3],2 (10.5) n (%)
same,"Lymphocyte count decreased, grade ≥ 3",[1]; [3],0 n (%)
same,"Nausea, any grade",[1]; [3],4 (21.1) n (%)
same,"Nausea, grade ≥ 3",[1]; [3],0 n (%)
same,"Rash (group term), any grade",[1]; [3],2 (10.5) n (%)
same,"Rash (group term), grade ≥ 3",[1]; [3],0 n (%)
same,"Sepsis, any grade",[1]; [3],1 (5.3) n (%)
same,"Sepsis, grade ≥ 3",[1]; [3],1 (5.3) n (%)
same,"Thrombocytopenia, any grade",[1]; [3],0 n (%)
same,"Thrombocytopenia, grade ≥ 3",[1]; [3],0 n (%)
same,"Ureteric obstruction, any grade",[1]; [3],1 (5.3) n (%)
same,"Ureteric obstruction, grade ≥ 3",[1]; [3],1 (5.3) n (%)
same,"Urticaria, any grade",[1]; [3],0 n (%)
same,"Urticaria, grade ≥ 3",[1]; [3],0 n (%)
same,patients who experienced a grade 5 AE (sepsis),"[1]; part B, not considered related to capivasertib or midazolam",4.8%
same,"Abdominal pain, any grade",[1]; [4],1 (4.8) n (%)
same,"Abdominal pain, grade ≥ 3",[1]; [4],0 n (%)
same,"Anemia, any grade",[1]; [4],2 (9.5) n (%)
same,"Anemia, grade ≥ 3",[1]; [4],1 (4.8) n (%)
same,"Any AE, any grade",[1]; [4],10 (47.6) n (%)
same,"Any AE, grade ≥ 3",[1]; [4],3 (14.3) n (%)
same,"Asthenia, any grade",[1]; [4],1 (4.8) n (%)
same,"Asthenia, grade ≥ 3",[1]; [4],0 n (%)
same,"Blood alkaline phosphatase increased, any grade",[1]; [4],0 n (%)
same,"Blood alkaline phosphatase increased, grade ≥ 3",[1]; [4],0 n (%)
same,"Blood bilirubin increased, any grade",[1]; [4],0 n (%)
same,"Blood bilirubin increased, grade ≥ 3",[1]; [4],0 n (%)
same,"Blood creatinine increased, any grade",[1]; [4],0 n (%)
same,"Blood creatinine increased, grade ≥ 3",[1]; [4],0 n (%)
same,"COVID-19, any grade",[1]; [4],0 n (%)
same,"COVID-19, grade ≥ 3",[1]; [4],0 n (%)
same,"Decreased appetite, any grade",[1]; [4],0 n (%)
same,"Decreased appetite, grade ≥ 3",[1]; [4],0 n (%)
same,"Diarrhea, any grade",[1]; [4],6 (28.6) n (%)
same,"Diarrhea, grade ≥ 3",[1]; [4],0 n (%)
same,"Fatigue, any grade",[1]; [4],0 n (%)
same,"Fatigue, grade ≥ 3",[1]; [4],0 n (%)
same,"Gamma-glutamyl transferase increased, any grade",[1]; [4],0 n (%)
same,"Gamma-glutamyl transferase increased, grade ≥ 3",[1]; [4],0 n (%)
same,"Hyperglycemia, any grade",[1]; [4],1 (4.8) n (%)
same,"Hyperglycemia, grade ≥ 3",[1]; [4],0 n (%)
same,"Hypoalbuminemia, any grade",[1]; [4],1 (4.8) n (%)
same,"Hypoalbuminemia, grade ≥ 3",[1]; [4],1 (4.8) n (%)
same,"Hypokalemia, any grade",[1]; [4],1 (4.8) n (%)
same,"Hypokalemia, grade ≥ 3",[1]; [4],0 n (%)
same,"Hyponatremia, any grade",[1]; [4],1 (4.8) n (%)
same,"Hyponatremia, grade ≥ 3",[1]; [4],0 n (%)
same,"Hypotension, any grade",[1]; [4],0 n (%)
same,"Hypotension, grade ≥ 3",[1]; [4],0 n (%)
same,"Large intestinal obstruction, any grade",[1]; [4],0 n (%)
same,"Large intestinal obstruction, grade ≥ 3",[1]; [4],0 n (%)
same,"Lymphocyte count decreased, any grade",[1]; [4],1 (4.8) n (%)
same,"Lymphocyte count decreased, grade ≥ 3",[1]; [4],1 (4.8) n (%)
same,"Nausea, any grade",[1]; [4],2 (9.5) n (%)
same,"Nausea, grade ≥ 3",[1]; [4],0 n (%)
same,"Rash (group term), any grade",[1]; [4],0 n (%)
same,"Rash (group term), grade ≥ 3",[1]; [4],0 n (%)
same,"Sepsis, any grade",[1]; [4],0 n (%)
same,"Sepsis, grade ≥ 3",[1]; [4],0 n (%)
same,"Thrombocytopenia, any grade",[1]; [4],1 (4.8) n (%)
same,"Thrombocytopenia, grade ≥ 3",[1]; [4],1 (4.8) n (%)
same,"Ureteric obstruction, any grade",[1]; [4],0 n (%)
same,"Ureteric obstruction, grade ≥ 3",[1]; [4],0 n (%)
same,"Urticaria, any grade",[1]; [4],0 n (%)
same,"Urticaria, grade ≥ 3",[1]; [4],0 n (%)
same,"Abdominal pain, any grade",[1]; [5],2 (9.5) n (%)
same,"Abdominal pain, grade ≥ 3",[1]; [5],1 (4.8) n (%)
same,"Anemia, any grade",[1]; [5],6 (28.6) n (%)
same,"Anemia, grade ≥ 3",[1]; [5],1 (4.8) n (%)
same,"Any AE, any grade",[1]; [5],21 (100) n (%)
same,"Any AE, grade ≥ 3",[1]; [5],14 (66.7) n (%)
same,"Asthenia, any grade",[1]; [5],3 (14.3) n (%)
same,"Asthenia, grade ≥ 3",[1]; [5],1 (4.8) n (%)
same,"Blood alkaline phosphatase increased, any grade",[1]; [5],1 (4.8) n (%)
same,"Blood alkaline phosphatase increased, grade ≥ 3",[1]; [5],1 (4.8) n (%)
same,"Blood bilirubin increased, any grade",[1]; [5],2 (9.5) n (%)
same,"Blood bilirubin increased, grade ≥ 3",[1]; [5],1 (4.8) n (%)
same,"Blood creatinine increased, any grade",[1]; [5],3 (14.3) n (%)
same,"Blood creatinine increased, grade ≥ 3",[1]; [5],0 n (%)
same,"COVID-19, any grade",[1]; [5],2 (9.5) n (%)
same,"COVID-19, grade ≥ 3",[1]; [5],1 (4.8) n (%)
same,"Decreased appetite, any grade",[1]; [5],5 (23.8) n (%)
same,"Decreased appetite, grade ≥ 3",[1]; [5],2 (9.5) n (%)
same,"Diarrhea, any grade",[1]; [5],16 (76.2) n (%)
same,"Diarrhea, grade ≥ 3",[1]; [5],1 (4.8) n (%)
same,"Fatigue, any grade",[1]; [5],7 (33.3) n (%)
same,"Fatigue, grade ≥ 3",[1]; [5],2 (9.5) n (%)
same,"Gamma-glutamyl transferase increased, any grade",[1]; [5],1 (4.8) n (%)
same,"Gamma-glutamyl transferase increased, grade ≥ 3",[1]; [5],1 (4.8) n (%)
same,"Hyperglycemia, any grade",[1]; [5],6 (28.6) n (%)
same,"Hyperglycemia, grade ≥ 3",[1]; [5],1 (4.8) n (%)
same,"Hypoalbuminemia, any grade",[1]; [5],1 (4.8) n (%)
same,"Hypoalbuminemia, grade ≥ 3",[1]; [5],1 (4.8) n (%)
same,"Hypokalemia, any grade",[1]; [5],5 (23.8) n (%)
same,"Hypokalemia, grade ≥ 3",[1]; [5],1 (4.8) n (%)
same,"Hyponatremia, any grade",[1]; [5],4 (19.0) n (%)
same,"Hyponatremia, grade ≥ 3",[1]; [5],1 (4.8) n (%)
same,"Hypotension, any grade",[1]; [5],4 (19.0) n (%)
same,"Hypotension, grade ≥ 3",[1]; [5],1 (4.8) n (%)
same,"Large intestinal obstruction, any grade",[1]; [5],1 (4.8) n (%)
same,"Large intestinal obstruction, grade ≥ 3",[1]; [5],1 (4.8) n (%)
same,"Lymphocyte count decreased, any grade",[1]; [5],3 (14.3) n (%)
same,"Lymphocyte count decreased, grade ≥ 3",[1]; [5],1 (4.8) n (%)
same,"Nausea, any grade",[1]; [5],7 (33.3) n (%)
same,"Nausea, grade ≥ 3",[1]; [5],0 n (%)
same,"Rash (group term), any grade",[1]; [5],8 (38.1) n (%)
same,"Rash (group term), grade ≥ 3",[1]; [5],3 (14.3) n (%)
same,"Sepsis, any grade",[1]; [5],1 (4.8) n (%)
same,"Sepsis, grade ≥ 3",[1]; [5],1 (4.8) n (%)
same,"Thrombocytopenia, any grade",[1]; [5],1 (4.8) n (%)
same,"Thrombocytopenia, grade ≥ 3",[1]; [5],1 (4.8) n (%)
same,"Ureteric obstruction, any grade",[1]; [5],1 (4.8) n (%)
same,"Ureteric obstruction, grade ≥ 3",[1]; [5],1 (4.8) n (%)
same,"Urticaria, any grade",[1]; [5],1 (4.8) n (%)
same,"Urticaria, grade ≥ 3",[1]; [5],1 (4.8) n (%)
same,patients who experienced a grade 4 AE (thrombocytopenia),"[1]; treatment period 2, not considered related to capivasertib or midazolam",4.8%
same,inhibition of AKT isoforms,[2],"potent, selective inhibitor"
